According to patent publication US9181243B2, “Solvate form M of trametinib dimethyl sulfoxide and methods of making and using thereof” (HANGZHOU PUSHAI PHARMACEUTICAL TECHNOLOGY CO., LTD., priority 2014, dated 2015):
Like-named read-outs stand apart in the source and are kept apart here. Each block holds one molecule with its values, some of them ahead of it.

Tests used:
[1] = volume distribution
Description: Typical particle size distribution (PSD) is measured using a laser diffraction particle size analyzer, namely Microtrac FLEX 53500. The most common approach for defining the distribution is to report the D10, D50, and D90 values based on a volume distribution. The D50, the median, has been defined above as the diameter where half of the population lies below this value. Similarly, 90 percent of the distribution lies below the D90, and 10 percent of the population lies below the D10.

[2] = Storage stability of crystalline form followed by XRPD; conditions: 44% RH, room temperature, 9 months
[3] = Isothermal sorption (hygroscopicity); conditions: between 20-80% RH (relative humidity)
Description: Isothermal sorption was performed by TA Instruments Q5000 TGA. The control software is Thermal Advantage and the analysis software is Universal Analysis. Usually 1 to 10 mg of the specimen was placed in the platinum pan. The weight changes of the sample from 20% to 80% to 20% relative humidity were recorded by the TA software and the isothermal sorption plot was obtained by the analysis software.

[4] = test system: advanced melanoma with BRAF V600E/K mutations; conditions: versus traditional chemotherapy drugs; cited from earlier work

- D10 ([1]; listed as Example 8): 18 μm
- D50 ([1]; listed as Example 8): 40 μm
- D90 ([1]; listed as Example 8): 85 μm
- D10 ([1]; listed as Example 9): 9 μm
- D50 ([1]; listed as Example 9): 24 μm
- D90 ([1]; listed as Example 9): 72 μm
- crystalline form change on storage (XRPD pattern) [2]: no signs of form change
- weight change in isothermal sorption [3]: about 1.07%
SMILES: CC(=O)Nc1cccc(-n2c(=O)n(C3CC3)c(=O)c3c(Nc4ccc(I)cc4F)n(C)c(=O)c(C)c32)c1 [Form M]

SMILES: CC(=O)Nc1cccc(-n2c(=O)n(C3CC3)c(=O)c3c(Nc4ccc(I)cc4F)n(C)c(=O)c(C)c32)c1 [trametinib, N-{3-[3-cyclopropyl-5-(2-fluoro-4-iodo-phenylamino)-3,4,6,7-tetrahydro-6,8-dimethyl-2,4,7-trioxo-pyrido[4,3-d]pyrimidin-1(2H)-yl]phenyl}acetamide]
- therapeutic effect [4]: significantly better than traditional chemotherapy drugs

- D10 [1]: 3 μm
- D50 [1]: 8 μm
- D90 [1]: 36 μm
- crystalline form change on storage (XRPD pattern) ([2]; listed as trametinib dimethyl sulfoxide solvate obtained by the conventional methods): its patterns changed
- crystalline form change on storage (XRPD pattern) ([2]; listed as trametinib dimethyl sulfoxide solvates obtained by conventional methods): changed its XRD pattern
SMILES: CC(=O)Nc1cccc(-n2c(=O)n(C3CC3)c(=O)c3c(Nc4ccc(I)cc4F)n(C)c(=O)c(C)c32)c1.C[S+](C)[O-] [Reference Example 1, Trametinib dimethyl sulfoxide solvate, reference compound]
